From patent US8952157B2, “Apoptosis-inducing agents for the treatment of cancer and immune and autoimmune diseases” (AbbVie Inc., priority 2008, dated 2015)
Read-outs that look alike come from different tables or passages of the source.

Target: GST-Bcl-2 (Homo sapiens (Human), UniProt P10415)
Experiment: Time Resolved-Fluorescence Resonance Energy Transfer (TR-FRET) Bcl-2 binding assay
Summary of the method: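 Competition TR-FRET: GST-Bcl-2 with fluorescent Bak peptide probe and Tb-anti-GST antibody, compounds serially diluted from 50 μM (2× start, 10% DMSO).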

[1] = GST-Bcl-2 1 nM, F-Bak peptide probe 100 nM, Tb-anti-GST antibody 1 nM, Ki by Wang's equation

Chain of GST-Bcl-2 (P10415 whole entry): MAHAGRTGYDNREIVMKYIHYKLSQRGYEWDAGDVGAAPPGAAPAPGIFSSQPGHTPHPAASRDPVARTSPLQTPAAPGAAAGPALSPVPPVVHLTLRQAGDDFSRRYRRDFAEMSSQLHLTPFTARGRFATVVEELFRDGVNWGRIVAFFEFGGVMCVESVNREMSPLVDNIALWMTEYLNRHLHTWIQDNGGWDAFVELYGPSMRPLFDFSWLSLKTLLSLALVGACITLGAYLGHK

SMILES	Ki [1]	Ki
CC1(C)CCC(CN2CCN(c3ccc(C(=O)NS(=O)(=O)c4ccc(NCC5CCOCC5)c([N+](=O)[O-])c4)c(Oc4cncc(N)c4)c3)CC2)=C(c2ccc(Cl)cc2)C1 [Example 279, 2-[(5-aminopyridin-3-yl)oxy]-4-(4-{[2-(4-chlorophenyl)-4,4-dimethylcyclohex-1-en-1-yl]methyl}piperazin-1-yl)-N-({3-nitro-4-[(tetrahydro-2H-pyran-4-ylmethyl)amino]phenyl}sulfonyl)benzamide]	1.7 nM	
CC1(C)CCC(CN2CCN(c3ccc(C(=O)NS(=O)(=O)c4ccc(NCC5CCOCC5)c([N+](=O)[O-])c4)c(Oc4ccnc(NC(=O)OC(C)(C)C)c4)c3)CC2)=C(c2ccc(Cl)cc2)C1 [Example 280, tert-butyl 4-(5-(4-{[2-(4-chlorophenyl)-4,4-dimethylcyclohex-1-en-1-yl]methyl}piperazin-1-yl)-2-{[({3-nitro-4-[(tetrahydro-2H-pyran-4-ylmethyl)amino]phenyl}sulfonyl)amino]carbonyl}phenoxy)pyridin-2-ylcarbamate]	7.55 nM	
CC1(C)CCC(CN2CCN(c3ccc(C(=O)NS(=O)(=O)c4ccc(NC5CCN(C6CCOCC6)CC5)c([N+](=O)[O-])c4)c(Oc4ccc5[nH]cc(Cl)c5c4)c3)CC2)=C(c2ccc(Cl)cc2)C1 [Example 281, 2-[(3-chloro-1H-indol-5-yl)oxy]-4-(4-{[2-(4-chlorophenyl)-4,4-dimethylcyclohex-1-en-1-yl]methyl}piperazin-1-yl)-N-({3-nitro-4-[(1-tetrahydro-2H-pyran-4-ylpiperidin-4-yl)amino]phenyl}sulfonyl)benzamide]	0.111 nM	
CC1(C)CCC(CN2CCN(c3ccc(C(=O)NS(=O)(=O)c4ccc(NCC5CCOCC5)c([N+](=O)[O-])c4)c(Oc4ccnc(N)c4)c3)CC2)=C(c2ccc(Cl)cc2)C1 [Example 282, 2-[(2-aminopyridin-4-yl)oxy]-4-(4-{[2-(4-chlorophenyl)-4,4-dimethylcyclohex-1-en-1-yl]methyl}piperazin-1-yl)-N-({3-nitro-4-[(tetrahydro-2H-pyran-4-ylmethyl)amino]phenyl}sulfonyl)benzamide]	1.01 nM	
CC1(C)CCC(CN2CCN(c3ccc(C(=O)NS(=O)(=O)c4ccc(NCC5CCOCC5)c([N+](=O)[O-])c4)c(Oc4ccc(O)nc4)c3)CC2)=C(c2ccc(Cl)cc2)C1 [Example 283, 4-(4-{[2-(4-chlorophenyl)-4,4-dimethylcyclohex-1-en-1-yl]methyl}piperazin-1-yl)-2-[(6-hydroxypyridin-3-yl)oxy]-N-({3-nitro-4-[(tetrahydro-2H-pyran-4-ylmethyl)amino]phenyl}sulfonyl)benzamide]	17.2 nM	
CC1(C)CCC(CN2CCN(c3ccc(C(=O)NS(=O)(=O)c4ccc(NCC5CCOCC5)c([N+](=O)[O-])c4)c(Oc4ccc(OCc5ccccc5)nc4)c3)CC2)=C(c2ccc(Cl)cc2)C1 [Example 284, 2-{[6-(benzyloxy)pyridin-3-yl]oxy}-4-(4-{[2-(4-chlorophenyl)-4,4-dimethylcyclohex-1-en-1-yl]methyl}piperazin-1-yl)-N-({3-nitro-4-[(tetrahydro-2H-pyran-4-ylmethyl)amino]phenyl}sulfonyl)benzamide]	79.3 nM	
CC1(C)CCC(CN2CCN(c3ccc(C(=O)NS(=O)(=O)c4ccc(OCC5COCCO5)c([N+](=O)[O-])c4)c(Oc4cc5cc[nH]c5cc4F)c3)CC2)=C(c2ccc(Cl)cc2)C1 (centres unmarked) [Example 285, 4-(4-{[2-(4-chlorophenyl)-4,4-dimethylcyclohex-1-en-1-yl]methyl}piperazin-1-yl)-N-{[4-(1,4-dioxan-2-ylmethoxy)-3-nitrophenyl]sulfonyl}-2-[(6-fluoro-1H-indol-5-yl)oxy]benzamide]	0.037 nM	
CN1CCN(Nc2ccc(S(=O)(=O)NC(=O)c3ccc(N4CCN(CC5=C(c6ccc(Cl)cc6)CC(C)(C)CC5)CC4)cc3Oc3cccc4c3CC(=O)N4)cc2[N+](=O)[O-])CC1 [Example 287, 4-(4-{[2-(4-chlorophenyl)-4,4-dimethylcyclohex-1-en-1-yl]methyl}piperazin-1-yl)-N-({4-[(4-methylpiperazin-1-yl)amino]-3-nitrophenyl}sulfonyl)-2-[(2-oxo-2,3-dihydro-1H-indol-4-yl)oxy]benzamide]	0.131 nM	
CN1CCC(Nc2ccc(S(=O)(=O)NC(=O)c3ccc(N4CCN(CC5=C(c6ccc(Cl)cc6)CC(C)(C)CC5)CC4)cc3Oc3cccc4c3CC(=O)N4)cc2[N+](=O)[O-])CC1 [Example 288, 4-(4-{[2-(4-chlorophenyl)-4,4-dimethylcyclohex-1-en-1-yl]methyl}piperazin-1-yl)-N-({4-[(1-methylpiperidin-4-yl)amino]-3-nitrophenyl}sulfonyl)-2-[(2-oxo-2,3-dihydro-1H-indol-4-yl)oxy]benzamide]	0.017 nM	
CC1(C)CCC(CN2CCN(c3ccc(C(=O)NS(=O)(=O)c4ccc(NC5CCN(C6CCOCC6)CC5)c([N+](=O)[O-])c4)c(Oc4cccc5c4CC(=O)N5)c3)CC2)=C(c2ccc(Cl)cc2)C1 [Example 289, 4-(4-{[2-(4-chlorophenyl)-4,4-dimethylcyclohex-1-en-1-yl]methyl}piperazin-1-yl)-N-({3-nitro-4-[(1-tetrahydro-2H-pyran-4-ylpiperidin-4-yl)amino]phenyl}sulfonyl)-2-[(2-oxo-2,3-dihydro-1H-indol-4-yl)oxy]benzamide]	< 0.01 nM	
CC1(C)CCC(CN2CCN(c3ccc(C(=O)NS(=O)(=O)c4ccc(OCC5COCCO5)c([N+](=O)[O-])c4)c(Oc4cc5cc[nH]c5cc4Cl)c3)CC2)=C(c2ccc(Cl)cc2)C1 (centres unmarked) [Example 290, 2-[(6-chloro-1H-indol-5-yl)oxy]-4-(4-{[2-(4-chlorophenyl)-4,4-dimethylcyclohex-1-en-1-yl]methyl}piperazin-1-yl)-N-{[4-(1,4-dioxan-2-ylmethoxy)-3-nitrophenyl]sulfonyl}benzamide]	0.251 nM	
CC1(C)CCC(CN2CCN(c3ccc(C(=O)NS(=O)(=O)c4ccc(NCC5COCCO5)c([N+](=O)[O-])c4)c(Oc4cc5cc[nH]c5cc4Cl)c3)CC2)=C(c2ccc(Cl)cc2)C1 (centres unmarked) [Example 291, 2-[(6-chloro-1H-indol-5-yl)oxy]-4-(4-{[2-(4-chlorophenyl)-4,4-dimethylcyclohex-1-en-1-yl]methyl}piperazin-1-yl)-N-({4-[(1,4-dioxan-2-ylmethyl)amino]-3-nitrophenyl}sulfonyl)benzamide]	0.273 nM	
CC1(C)CCC(CN2CCN(c3ccc(C(=O)NS(=O)(=O)c4ccc(NCC5COCCO5)c([N+](=O)[O-])c4)c(Oc4cc5cc[nH]c5cc4F)c3)CC2)=C(c2ccc(Cl)cc2)C1 (centres unmarked) [Example 292, 4-(4-{[2-(4-chlorophenyl)-4,4-dimethylcyclohex-1-en-1-yl]methyl}piperazin-1-yl)-N-({4-[(1,4-dioxan-2-ylmethyl)amino]-3-nitrophenyl}sulfonyl)-2-[(6-fluoro-1H-indol-5-yl)oxy]benzamide]	0.191 nM	
CC1(C)CCC(CN2CCN(c3ccc(C(=O)NS(=O)(=O)c4ccc(N[C@H]5CC[C@H](N6CCOCC6)CC5)c([N+](=O)[O-])c4)c(Oc4cc5cc[nH]c5cc4Cl)c3)CC2)=C(c2ccc(Cl)cc2)C1 [Example 293, Trans-2-[(6-chloro-1H-indol-5-yl)oxy]-4-(4-{[2-(4-chlorophenyl)-4,4-dimethylcyclohex-1-en-1-yl]methyl}piperazin-1-yl)-N-({4-[(4-morpholin-4-ylcyclohexyl)amino]-3-nitrophenyl}sulfonyl)benzamide]		0.233 nM
